Source: PMC12881681 (Molecular Pharmacology, 2025)

What was measured:
[1] = biological target: T1, human liver cytosolic AOX1 (Homo sapiens, UniProt Q06278); assay: Partition ratio determination (titration, human liver cytosol); format: biochemical; set-up: Enzymatic reaction was initiated by adding human liver cytosol (100 μg); tissue Corning, Inc. (Gentest brand) 452115; host or cells: human liver cytosol, pool of 150 donors; settings: for partition ratio, fold greater than erlotinib / turnover number and partition ratio, fold greater than erlotinib: Table 1 values; for Turnover Number: human liver cytosol; for Partition Ratio: turnover number minus 1
T1 sequence (Q06278 1-1338): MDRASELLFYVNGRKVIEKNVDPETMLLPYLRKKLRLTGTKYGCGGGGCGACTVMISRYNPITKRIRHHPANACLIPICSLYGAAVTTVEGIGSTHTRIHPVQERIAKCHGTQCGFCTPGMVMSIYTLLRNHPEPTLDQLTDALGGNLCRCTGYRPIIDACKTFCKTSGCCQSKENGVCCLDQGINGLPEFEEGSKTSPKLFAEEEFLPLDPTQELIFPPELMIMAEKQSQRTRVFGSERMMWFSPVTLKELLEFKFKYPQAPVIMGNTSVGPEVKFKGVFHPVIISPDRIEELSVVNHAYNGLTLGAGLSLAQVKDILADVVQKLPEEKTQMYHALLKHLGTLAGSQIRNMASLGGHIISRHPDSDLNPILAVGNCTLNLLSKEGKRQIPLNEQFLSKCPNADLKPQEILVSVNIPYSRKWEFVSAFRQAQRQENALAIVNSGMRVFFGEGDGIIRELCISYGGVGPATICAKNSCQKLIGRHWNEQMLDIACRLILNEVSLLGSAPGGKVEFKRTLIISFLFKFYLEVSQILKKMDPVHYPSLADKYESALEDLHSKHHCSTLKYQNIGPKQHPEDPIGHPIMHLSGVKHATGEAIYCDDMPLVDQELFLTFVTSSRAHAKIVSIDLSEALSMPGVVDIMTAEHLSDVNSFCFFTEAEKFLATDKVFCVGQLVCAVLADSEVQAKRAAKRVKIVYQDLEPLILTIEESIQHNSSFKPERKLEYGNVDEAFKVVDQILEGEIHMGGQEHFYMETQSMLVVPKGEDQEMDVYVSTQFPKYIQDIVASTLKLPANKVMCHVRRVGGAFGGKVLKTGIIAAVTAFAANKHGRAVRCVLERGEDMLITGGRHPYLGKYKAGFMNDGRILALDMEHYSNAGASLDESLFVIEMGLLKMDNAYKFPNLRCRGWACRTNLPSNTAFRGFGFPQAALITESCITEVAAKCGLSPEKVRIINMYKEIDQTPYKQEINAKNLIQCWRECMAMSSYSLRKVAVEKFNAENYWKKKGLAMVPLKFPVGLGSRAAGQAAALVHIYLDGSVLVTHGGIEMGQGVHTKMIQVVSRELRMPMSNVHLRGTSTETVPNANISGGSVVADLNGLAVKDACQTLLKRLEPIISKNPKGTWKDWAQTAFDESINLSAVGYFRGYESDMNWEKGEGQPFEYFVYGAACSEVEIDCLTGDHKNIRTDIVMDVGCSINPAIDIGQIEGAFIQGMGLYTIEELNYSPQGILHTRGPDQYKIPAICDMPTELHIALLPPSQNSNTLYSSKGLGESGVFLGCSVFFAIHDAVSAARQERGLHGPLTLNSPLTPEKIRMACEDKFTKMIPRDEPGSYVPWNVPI
Method: The enzyme kinetic experiments were conducted as described above. The incubation was allowed to proceed until saturation of enzyme has been reached (6 or 18 minutes, as specified in each figure legend). Carbazeran 4-oxidation was plotted against the ratio of inactivator concentration to AOX1 protein concentration in the incubation mixture of 200 μL. The specific lot of human liver cytosol (#38292) used in this study contained 1.05 ± 0.01 pmol/μL (mean ± SD) of AOX1 protein, as assessed by capillary nanoproteomic immunoassay.[27] The turnover number was the extrapolation of the intercept of the 2 linear regression lines to the x-axis, which was determined by solving the 2 linear regression equations. The partition ratio was calculated by subtracting the turnover number by 1, assuming 1:1 stoichiometry between the inactivator and the enzyme.[29]

[2] = Rapid equilibrium dialysis, nonspecific binding to human liver cytosol
Method: Nonspecific binding of test chemicals to human liver cytosol (100 μg) was determined using a Rapid Equilibrium Dialysis Kit (Thermo Fisher Scientific), as described in detail in our previous publication.[27]
MOLPHA- D-25- 00208 Supplemental Materials. Kweh et al. Mol Pharmacol […]
inhibition constants (Ki,u ) for the inhibition of human liver cytosolic carbazeran 4-oxidation A mixture containing a test chemical (10 µM; dissolved in a final concentration of 0.5% v/v DMSO) and human liver cytosol (100 µg total cytosolic protein) were dialyzed as described under Materials and Methods. Chemical concentr ation in each chamber wa s quantified by UPLC-MS/MS. Data are exp ressed as mean ± S.D. of three independent experiments. […]
a, K I,u = f u × K I, where fu was calcul ated from 10 µ M of chemicals in human liver cytosol.

[3] = biological target: T1, human liver cytosolic AOX1; format: biochemical; set-up: Enzymatic reaction was initiated by adding human liver cytosol (100 μg); tissue Corning, Inc. (Gentest brand) 452115; host or cells: human liver cytosol, pool of 150 donors; settings: potassium ferricyanide 2 mM, 0 or 6 min preincubation
Method: The residual AOX1 enzyme activity was determined by the carbazeran 4-oxidation assay.
A test chemical at a concentration described above was incubated with human liver cytosol (100 μg protein) at 37 °C for 0 or 6 minutes. […] After 10-minute incubation, an aliquot (50 μL) of the […] (total volume of 200 μL) containing potassium phosphate buffer and carbazeran (15 μM), which yielded a 4-fold dilution of the secondary incubation mixture. The residual AOX1 enzyme activity was determined as described above.

[4] = biological target: T1, human liver cytosolic AOX1; assay: Effects of nucleophilic trapping agents and scavengers of reactive oxygen species on AOX1 inactivation; format: biochemical; set-up: Enzymatic reaction was initiated by adding human liver cytosol (100 μg); tissue Corning, Inc. (Gentest brand) 452115; host or cells: human liver cytosol, pool of 150 donors; settings: inactivator 1.5 μM; for effect of catalase and superoxide dismutase on AOX1 inactivation: catalase 1000 and 2000 U, superoxide dismutase 500 and 1000 U; for effect of glutathione and N-acetylcysteine on AOX1 inactivation: glutathione or N-acetylcysteine 5 and 10 mM, 6 min
Method: The control incubations were described in our previous publication.[28] Each standard incubation mixture was subjected to the same procedures as described in Enzyme Inactivation Experiments. The residual AOX1 enzyme activity was determined by the carbazeran 4-oxidation assay.

[5] = Human plasma concentrations after erlotinib dosing (literature)
[6] = 10 μM, human liver cytosol 100 μg protein, 4-hour dialysis

Row | SMILES | partition ratio, fold greater than erlotinib [1] [fold] | Turnover Number [1] | Partition Ratio [1] | Fraction Unbound (fu) ([2]; human, cytosol) | effect of coincubation or postincubation with potassium ferricyanide on AOX1 inactivation [3] | turnover number and partition ratio, fold greater than erlotinib [1] [fold] | Turnover Number ([1]; listed as 3-vinylerlotinib) | Partition Ratio ([1]; listed as 3-vinylerlotinib) | effect of catalase and superoxide dismutase on AOX1 inactivation [4] | effect of glutathione and N-acetylcysteine on AOX1 inactivation [4] | fraction unbound at 4 h, 10 μM ([2]; human, human liver cytosol) | Cmax,u ([5]; Cmax,u = plasma fu × Cmax, plasma fu = 0.07) [nM] | Fraction Unbound (fu) [2, 6] | Cmax,u ([5]; in vivo) [nM]
1 | C#Cc1cccc(Nc2nc(C)nc3cc(OCCOC)c(OCCOC)cc23)c1 [2-Methylerlotinib, 2-methylerlotinib] | 1.9 | 49.9 ± 1.40 | 48.9 ± 1.40 | 0.51 ± 0.07 | not increased or decreased | – | – | – | – | – | – | – | – | –
2 | C=Cc1cccc(Nc2ncnc3cc(OCCOC)c(OCCOC)cc23)c1 [3-Vinylerlotinib, 3-vinylerlotinib] | 10 | 271 ± 23.5∗∗∗ | 270 ± 23.5∗∗∗ | 0.78 ± 0.04 | not increased or decreased | 10 | 271 | 270 | – | – | – | – | – | –
3 | C#Cc1cc(Nc2ncnc3cc(OCCOC)c(OCCOC)cc23)ccc1C [4′-Methylerlotinib, 4′-methylerlotinib] | – | 42.9 ± 4.32 | 41.9 ± 4.32 | 0.73 ± 0.05 | not increased or decreased | 1.6 | – | – | – | – | – | – | – | –
4 | C#Cc1cccc(Nc2ncnc3cc(OCCOC)c(OCCOC)cc23)c1 [Erlotinib] | – | 26.9 ± 1.30 | – | – | not increased or decreased | – | – | – | did not protect | did not reduce the inactivation | 0.56 | 310 to 380 | – | –
5 | C#Cc1cccc(Nc2ncnc3cc(OCCOC)c(OCCO)cc23)c1 [O-Desmethylerlotinib, O-desmethylerlotinib] | – | 35.2 ± 4.78 | 34.2 ± 4.78 | – | not increased or decreased | – | – | – | did not protect | did not reduce the inactivation | – | – | 0.84 | 7.7 to 20
6 | C#Cc1cccc(Nc2ncnc3cc(OCCO)c(OCCO)cc23)c1 [O-Didesmethylerlotinib, O-didesmethylerlotinib] | – | 24.6 ± 1.29 | 23.6 ± 1.29 | – | not increased or decreased | – | – | – | did not protect | did not reduce the inactivation | – | – | 0.84 | 0.1 to 0.8
